Experimental findings from DBAASP are described below.

Values after ≈ are worked out from the molar mass of the structure shown.

Some test systems named below: Escherichia coli 780; Escherichia coli 804; Staphylococcus aureus 75; Bacillus cereus DSM 4312; Listeria monocytogenes; Bacillus cereus DSM 4222; Aeromonas hydrophila; Syspastospora parasitica; Aeromonas salmonicida.
Test in all cases: ≥ marks a high value that may be exact or a test limit, other limits are often not marked, values filed in µg/mL are converted to µM
Test [1] deals with Pseudomonas aeruginosa 73.
Test [2] relates to Staphylococcus aureus 113.
The test system of test [3] is Acinetobacter baumannii ATCC 19606.
Test [4] has as its system Pseudomonas aeruginosa ATCC 9027.
For test [5], the system named is Pseudomonas aeruginosa 50.
Test [6] has as its system Staphylococcus epidermidis ATCC 12228.
Test [7] has as its system Staphylococcus aureus ATCC 29213.
In test [8] the test system is Acinetobacter baumannii 9931.
In test [9] the test system is Acinetobacter baumannii 97830.
The subject of test [10] is Bacillus subtilis ATCC 23857.
Test [11] concerns Klebsiella pneumoniae ATCC 700603.
For test [12], the system named is Pseudomonas aeruginosa ATCC 27853.
In test [13] the test system is Enterococcus faecium E007.
For test [14], the system named is Staphylococcus aureus ATCC 29231.
Test [15] relates to Acinetobacter baumannii ATCC 7978.
Test [16] relates to Pseudomonas aeruginosa PA14.
Test [17] concerns Clostridium perfringens ATCC 13124.
The subject of test [18] is Listeria monocytogenes SLCC 5581.
Test [19] concerns Pseudomonas fluorescens DSM 50124.
The test system of test [20] is Bacillus subtilis ATCC 6051.
Test [21] has as its system Salmonella enterica subsp. enterica serovar Typhimurium DSM 554.
Test [22] has as its system Pseudomonas putida DSM 291.
Test [23] relates to Salmonella typhimurium DSM 19587.
For test [24], the system named is Staphylococcus aureus DSM 2569.
The test system of test [25] is Escherichia coli ATCC 35150.
For test [26], the system named is Staphylococcus aureus ATCC 3300.
Test [27] relates to Clostridium perfringens DSM 11784.
Test [28] concerns Escherichia coli NCTC 13452.
Test [29] has as its system Escherichia coli NEB5alpha.
In test [30] the test system is Staphylococcus aureus ATCC 33592.
Test [31] relates to Staphylococcus epidermidis ATCC 35984.
The subject of test [32] is Vibrio parahaemolyticus ATCC 17802.
In test [33] the test system is Escherichia coli ATCC 8739.
Test [34] has as its system Edwardsiella tarda ATCC 15947.
Test [35] deals with Escherichia coli ATCC 25922.
Test [36] relates to Staphylococcus aureus FDA 209P.

Consider `NCC(=O)N[C@@H](CCCN=C(N)N)C(=O)N[C@@H](CCCN=C(N)N)C(=O)N[C@@H](Cc1c[nH]c2ccccc12)C(=O)N[C@@H](Cc1c[nH]c2ccccc12)C(=O)N[C@@H](Cc1c[nH]c2ccccc12)C(=O)N[C@@H](CCCN=C(N)N)C(=O)N[C@@H](CCCN=C(N)N)C(=O)NCC(N)=O` [GRRWWWRRG], for which the minimal inhibitory concentration (MIC) (as a rule, the least concentration at which growth counts as inhibited) in [1] was at least 128 µM; in [2], 8 µM (≈ 10.5 µg/mL); in [3], 128 µM (≈ 168 µg/mL); in test [4], 128 µM (≈ 168 µg/mL); against Escherichia coli 780, at least 32 µM; in test [5], at least 128 µM. In addition, the MIC in test [6] was 4 µM (≈ 5.26 µg/mL); in test [7], 2 µM (≈ 2.63 µg/mL); in test [8] it was at least 64 µM; in test [9] it was at least 128 µM; against Escherichia coli 804, at least 32 µM; in test [10], 4 µM (≈ 5.26 µg/mL). Moreover, the MIC against Staphylococcus aureus 75 was 8 µM (≈ 10.5 µg/mL); in [11] it was 128 µM (≈ 168 µg/mL); in test [12] it was over 128 µM.

Take `CC[C@H](C)[C@H](NC(=O)[C@H](CCCCN)NC(=O)[C@H](Cc1c[nH]c2ccccc12)NC(=O)[C@@H](N)CC(C)C)C(=O)NCC(=O)N[C@@H](CCCCN)C(=O)N[C@@H](CCCCN)C(=O)N[C@H](C(=O)N[C@@H](Cc1c[nH]c2ccccc12)C(=O)N[C@@H](CCCN=C(N)N)C(=O)N[C@H](C(=O)N[C@@H](CC(C)C)C(=O)N[C@@H](Cc1c[nH]c2ccccc12)C(=O)N[C@@H](CC(N)=O)C(=O)N[C@@H](Cc1c[nH]c2ccccc12)C(=O)N[C@@H](CCCN=C(N)N)C(=O)O)C(C)C)[C@@H](C)CC` [LWKIGKKIWRVLWNWR]: the minimum inhibitory concentration (MIC) in test [13] is at least 58.6 µM; in test [14], 1.83 µM (≈ 3.99 µg/mL); in [15], 7.33 µM (≈ 16 µg/mL); in test [16] it was 14.7 µM (≈ 32 µg/mL).

For the molecule `CC[C@H](C)[C@H](NC(=O)[C@@H](N)CCCN=C(N)N)C(=O)N[C@@H](CCCCN)C(=O)N[C@H](C(=O)N[C@H](C(=O)N[C@H](C(=O)N[C@@H](CO)C(=O)N[C@@H](Cc1ccccc1)C(=O)N[C@@H](CC(=O)O)C(=O)N[C@@H](CC(C)C)C(=O)N1CCC[C@H]1C(=O)N[C@@H](C)C(=O)N[C@@H](CC(C)C)C(=O)N[C@@H](CCCN=C(N)N)C(=O)N[C@@H](Cc1ccccc1)C(=O)N[C@@H](CC(C)C)C(=O)N[C@@H](CCCCN)C(=O)N[C@@H](CC(C)C)C(=O)O)[C@@H](C)O)C(C)C)[C@@H](C)O` [RIKTVTSFDLPALRFLKL], the minimum inhibitory concentration (MIC) was at least 125 µM in [17]; at least 500 µM in test [18]; at least 500 µM in test [19]; at least 1000 µM in the test with Bacillus cereus DSM 4312; 15.6 µM (≈ 33.1 µg/mL) in test [20]; at least 250 µM against Listeria monocytogenes. In addition, the MIC in [21] is at least 1000 µM; in [22], at least 125 µM; in [23], at least 1000 µM; in test [24], at least 500 µM; with Bacillus cereus DSM 4222 it was at least 1000 µM; in [25], at least 500 µM. For the same molecule, the MIC in test [26] was at least 500 µM; in test [27], at least 1000 µM; in test [28], at least 125 µM; in test [29] it was at least 62.5 µM.

For `NC(=O)[C@H](Cc1ccc(O)cc1)NC(=O)[C@H](Cc1c[nH]c2ccccc12)NC(=O)[C@H](CCCN=C(N)N)NC(=O)[C@H](CCCN=C(N)N)NC(=O)[C@H](Cc1ccc(O)cc1)NC(=O)[C@H](Cc1c[nH]c2ccccc12)NC(=O)[C@H](CCCN=C(N)N)NC(=O)[C@H](CCCN=C(N)N)NC(=O)[C@H](Cc1ccc(O)cc1)NC(=O)[C@H](Cc1c[nH]c2ccccc12)NC(=O)[C@H](CCCN=C(N)N)NC(=O)[C@@H](N)CCCN=C(N)N` [RRWYRRWYRRWY], the minimal inhibitory concentration (MIC) was 31.2 µM (≈ 62.6 µg/mL) in test [30]; at least 125 µM against Aeromonas hydrophila; 15.6 µM (≈ 31.3 µg/mL) in test [31]; at least 125 µM in test [32]; 0.49 µM (≈ 0.981 µg/mL) in test [4]; 7.81 µM (≈ 15.6 µg/mL) with Syspastospora parasitica. Also, the values for the minimal inhibitory concentration (MIC) (in the test on Aeromonas salmonicida; in [33]; in test [34]) were at least 500 µM, 7.81 µM (≈ 15.6 µg/mL) and at least 62.5 µM, respectively.

As for `CC[C@H](C)[C@H](NC(=O)[C@H](CCSC)NC(=O)[C@H](CCCCN)NC(=O)[C@@H](NC(=O)[C@H](C)NC(=O)CNC(=O)[C@H](CCCCN)NC(=O)[C@@H](NC(=O)[C@H](CC(C)C)NC(=O)[C@@H](NC(=O)[C@H](Cc1ccccc1)NC(=O)[C@H](CC(C)C)NC(=O)CN)[C@@H](C)O)[C@@H](C)CC)C(C)C)C(=O)NCC(=O)N[C@@H](CCCCN)C(=O)N[C@H](C(=O)N[C@H](C(=O)N[C@@H](C)C(=O)N[C@@H](CCCCN)C(=O)N[C@@H](CCC(=O)O)C(=O)N[C@@H](C)C(=O)NCC(=O)N[C@@H](CCCCN)C(=O)N[C@H](C(=O)NCC(=O)N[C@@H](CC(C)C)C(=O)N[C@@H](CCC(=O)O)C(=O)N[C@@H](CC(C)C)C(=O)N[C@@H](CCSC)C(=O)N[C@@H](C)C(=O)N[C@H]1CSSC[C@@H](C(=O)O)NC(=O)[C@H](CCC(N)=O)NC(=O)[C@H](CC(N)=O)NC(=O)[C@H]([C@@H](C)O)NC(=O)[C@H](C(C)C)NC(=O)[C@H](CCCCN)NC1=O)[C@@H](C)O)C(C)C)[C@@H](C)O` [GLFTLIKGAVKMIGKTVAKEAGKTGLELMACKVTNQC], the MIC in test [35] amounted to 1.1 µM (≈ 4.24 µg/mL); in test [36], 2.6 µM (≈ 10 µg/mL).
